Experimental data from patent publication US20220062268A1, “PHARMACEUTICAL COMPOSITION FOR THE TREATMENT OF PARKINSON'S DISEASE” (Teva Pharmaceuticals International GmbH, priority 2014, published 2022).
Entries after “also recorded” stand apart in the source; their conditions may differ. Read-outs that look alike come from different tables or passages of the source.

Tests used:
striatal dopamine = details: compared to L-DOPA, cited from earlier work
Parkinson models = details: cited from earlier work
[1] = test system: MPTP monkey model of Parkinson's disease; assay: MPTP monkey model of Parkinson's disease: tremor and Good ON; type: in vivo, Macaca fascicularis; details: MPTP macaques; DP-102 versus same dose of L-DOPA; tremor score summed over 3 hours post dose; FIG. 1
Protocol: Macaques (Macaca fascicularis) were rendered parkinsonian by repeated daily injections of MPTP hydrochloride (0.2 mg/kg, i.v.) until parkinsonian signs appeared. The degree of parkinsonism was assessed using a validated parkinsonian macaque clinical scale which rates the following symptoms of parkinsonian disability: tremor (0-3), variations in the general level of activity (0-3), body posture (flexion of spine; 0-3), vocalization (0-2), freezing (0-2), frequency of arm movements (reaching for food, 0-3 for each upper limb), and rigidity (0-3 for each upper limb).
The maximum parkinsonian disability score was 25. MPTP administration was stopped when a score of 6 was reached on the above scale (usually day 13-17). The macaques were left untreated, for a minimum of 6 weeks, until their parkinsonism became stable.
This study assessed the test item in a within-subject design with an intra-individually escalating dosage regimen.
Eight animals were randomly assigned to one of two treatment sequence groups (1: AB, 2: BA). […]
Tremor was assessed for 3 hours post L-DOPA administration for 10 minutes every 30 minutes, by post hoc analysis of video recordings by a trained assessor blinded to the study treatments. […]
The anti-parkinsonian action was evaluated based upon the “ON” state of the animals. […]

[2] = neutral pH; cited from earlier work
late Parkinson's disease = details: cited from earlier work

SMILES: [2H]C([2H])(c1ccc(O)c(O)c1)[C@]([2H])(N)C(=O)O [DP-102, L-2-Amino-2,3,3-trideutero-3-(3,4-dihydroxyphenyl) propionic acid]
- striatal dopamine levels (striatal dopamine; listed as α,β,β-D3-L-DOPA): higher longer-lasting striatal dopamine levels than L-DOPA; also recorded: increase and prolong the output of striatal dopamine significantly more than L-DOPA
- equi-effective dose compared to L-DOPA (Parkinson models; in vivo): about 60%
- motor activity (Parkinson models; several Parkinson models, compared to L-DOPA): improved motor activity compared to L-DOPA
- tremor in relation to Good ON [1]: less tremor at more Good ON

SMILES: N[C@@H](Cc1ccc(O)c(O)c1)C(=O)O [L-DOPA, (2S)-2-amino-3-(3,4-dihydroxyphenyl)propanoic acid, reference compound]
- solubility [2]: poorly dissolved at neutral pH
- tremor in relation to Good ON [1]: higher or observed at lower Good ON levels

SMILES: CN1CCc2cccc3c2[C@H]1Cc1ccc(O)c(O)c1-3 [apomorphine]
- dose of oral L-DOPA under infused apomorphine (late Parkinson's disease; daily dose of infused apomorphine 72.00±21.38 mg, reduced from 989.4±420.1 mg/day (Ruiz et al.)): 663.8 ± 403.2 mg/day
- reduction of L-DOPA (late Parkinson's disease; mean daily apomorphine dose of 75.2 mg (Katzenschlager et al.)): 55%

SMILES: [2H][C@@H](c1ccc(O)c(O)c1)[C@]([2H])(N)C(=O)O [α,β-D2-L-DOPA, S/S-2-amino-2,3-dideutero-3-(3,4-dihydroxyphenyl) propionic acid]
- striatal dopamine levels (striatal dopamine): increase and prolong the output of striatal dopamine significantly more than L-DOPA; also recorded: highest striatal dopamine concentrations
